Like-named read-outs stand apart in the source and are kept apart here. Starred links: 1 amine or outer side, 2 acyl side, 3 side chain; linkers in the order of their positions; H or OH if unused. Positions of bridges follow the written chain, without caps; N, C: chain ends. Non-standard residues stand in square brackets, D forms with d. Residues, ends and D or L forms follow the SMILES beside them. Chains are numbered I, II in the order given. X2 = O=C(CCCC(=O)NCCOCCOCCOCCOCCOCCOCCOCCOCCOCCOCCOCCOCCOCCOCCOCCOCCOCCOCCOCCOCCOCCOCCOCCn1cc(CCC(=O)[*:2])nn1)NCCOCCOCCOCCOCCOCCOCCOCCOCCOCCOCCOCCOCCOCCOCCOCCOCCOCCOCCOCCOCCOCCOCCOCCn1cc(CCC(=O)[*:1])nn1; X1 = O=C(C[*:1])N1CCN(C(=O)C[*:2])CCN(C(=O)C[*:3])CC1; 1Nal = N[C@@H](Cc1cccc2ccccc12)C(=O)O
Experiments:
human P-Selectin protein = biological target: T1, human P-Selectin protein (Homo sapiens, UniProt P16109); assay: SPR binding assay (Biacore); conditions: Affinity KD determined by SPR, recombinant biotinylated human P-Selectin, 25° C.
T1 sequence (P16109 42-830): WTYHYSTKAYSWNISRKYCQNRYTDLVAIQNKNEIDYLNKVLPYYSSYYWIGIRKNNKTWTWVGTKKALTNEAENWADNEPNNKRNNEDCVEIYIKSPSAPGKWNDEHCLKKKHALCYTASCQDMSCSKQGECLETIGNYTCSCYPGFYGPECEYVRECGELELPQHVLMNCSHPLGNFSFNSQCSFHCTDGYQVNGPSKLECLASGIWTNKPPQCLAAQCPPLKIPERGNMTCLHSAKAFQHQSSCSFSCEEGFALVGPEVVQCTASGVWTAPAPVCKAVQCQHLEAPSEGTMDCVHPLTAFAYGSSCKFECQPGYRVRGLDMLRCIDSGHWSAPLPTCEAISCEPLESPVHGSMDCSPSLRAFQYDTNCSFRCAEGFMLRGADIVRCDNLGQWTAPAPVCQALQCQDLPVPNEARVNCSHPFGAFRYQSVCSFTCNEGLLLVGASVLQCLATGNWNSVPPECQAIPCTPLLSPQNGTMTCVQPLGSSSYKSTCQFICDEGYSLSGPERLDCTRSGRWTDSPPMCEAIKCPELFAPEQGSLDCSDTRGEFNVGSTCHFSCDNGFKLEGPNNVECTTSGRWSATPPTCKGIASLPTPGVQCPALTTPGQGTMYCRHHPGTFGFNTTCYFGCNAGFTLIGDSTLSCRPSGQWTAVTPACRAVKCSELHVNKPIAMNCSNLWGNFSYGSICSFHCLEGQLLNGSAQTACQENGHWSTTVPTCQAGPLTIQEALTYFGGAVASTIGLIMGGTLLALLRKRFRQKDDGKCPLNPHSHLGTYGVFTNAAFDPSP
Method in brief: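 Biotinylated recombinant human P-Selectin was captured on a streptavidin chip (1000-1500 RU), and monomeric peptides were injected in PBS/0.05% Tween 20 with 0.5% DMSO at 25 °C (top 200 nM–50 μM, 2- or 3-fold series). Double-referenced data were fitted to a kinetic model with mass transport to give ka, kd and KD.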

[1] = biological target: T2, P-Selectin:PSGL1 interaction (Homo sapiens, UniProt P16109); assay: Receptor ligand inhibition assay (P-Selectin binding to HL-60 cells); type: cell-based; conditions: for Inhibition at top concentration: 100−% response at top concentration
T2 construct: host or cells: HL-60 cells (ATCC, CCL-240) supply the PSGL-1 partner endogenously
T2 sequence (P16109 42-771 limits assumed): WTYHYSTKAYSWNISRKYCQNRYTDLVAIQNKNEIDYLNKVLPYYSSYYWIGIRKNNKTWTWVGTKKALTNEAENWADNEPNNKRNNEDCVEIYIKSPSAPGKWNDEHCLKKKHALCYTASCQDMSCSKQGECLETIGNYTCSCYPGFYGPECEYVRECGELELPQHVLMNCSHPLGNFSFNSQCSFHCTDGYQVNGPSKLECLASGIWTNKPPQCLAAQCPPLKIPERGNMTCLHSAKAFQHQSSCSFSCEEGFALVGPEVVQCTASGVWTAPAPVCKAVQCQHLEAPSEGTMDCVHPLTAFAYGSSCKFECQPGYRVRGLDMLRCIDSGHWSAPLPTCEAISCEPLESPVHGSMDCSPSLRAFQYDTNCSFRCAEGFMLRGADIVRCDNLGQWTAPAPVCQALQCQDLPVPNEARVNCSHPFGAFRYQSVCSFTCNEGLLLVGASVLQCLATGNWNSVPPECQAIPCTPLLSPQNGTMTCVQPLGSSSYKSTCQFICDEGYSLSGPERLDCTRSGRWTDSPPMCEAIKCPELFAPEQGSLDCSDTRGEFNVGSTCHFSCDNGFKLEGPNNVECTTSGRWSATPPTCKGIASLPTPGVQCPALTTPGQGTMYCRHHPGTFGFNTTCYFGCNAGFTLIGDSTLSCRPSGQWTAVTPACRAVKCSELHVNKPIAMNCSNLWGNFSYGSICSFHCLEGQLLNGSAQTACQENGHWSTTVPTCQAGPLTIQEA
Procedure: Bicycle test samples, SelG1 (Crizanlizumab) were serially diluted maintaining 0.5% DMSO in assay buffer (25 mM HEPES, 121 mM NaCl, 5.4 mM KCl, 0.8 mM MgCl2, 1.8 mM CaCl2), 6 mM […], 5.5 mM glucose, 1% BSA, pH7.4) and transferred to 384 well clear bottom plates (Corning, 3712) with a final volume of 6 μL. […], of P-Selectin in imaging buffer (25 mM HEPES, 121 mM NaCl, 5.4 mM KCl, 0.8 mM MgCl2, 1.8 mM CaCl2), 6 mM […], 5.5 mM glucose, pH7.4) was added to give a 5 nM final concentration and incubated at room temperature for 15 minutes. HL-60 cells (ATCC, CCL-240) mixed with 1 μg/mL far red labelled wheat germ agglutinin (WGA, ThermoFisher W21404) and 1 μg/mL AlexaFluor 488-streptavidin (Invitrogen S11223) were added to the plate and incubated for 2 hours at room temperature in the absence of light. Staining and antibody binding were quantified by simultaneously scanning the microplates with 488 nm and 640 nm lasers on a mirrorball microplate cytometer, AF488 on FL2 triggering on AF647-WGA on FL4. Data was analysed in Dotmatics, using a four parameter logistic fit to generate IC50 values and % response. Percent inhibition was calculated using 100−% response at top concentration.

[2] = 5 nM P-Selectin, HL-60 cells, geomean of n=3, read-out: IC50

CC(C)C[C@@H]1NC(=O)[C@H](CO)NC(=O)[C@@H]2CCCN2C(=O)[C@H](C(C)C)NC(=O)[C@H](CC(=O)O)NC(=O)[C@@H]2CSCC(=O)N3CCN(CCN(CC3)C(=O)CSC[C@@H](C(=O)N[C@@H](C)C(=O)N[C@@H](CCCCNC(=O)CCc3cn(CCOCCOCCOCCOCCOCCOCCOCCOCCOCCOCCOCCOCCOCCOCCOCCOCCOCCOCCOCCOCCOCCOCCOCCNC(=O)CCCC(=O)NCCOCCOCCOCCOCCOCCOCCOCCOCCOCCOCCOCCOCCOCCOCCOCCOCCOCCOCCOCCOCCOCCOCCOCCn4cc(CCC(=O)NCCCC[C@H](NC(=O)[C@H](C)NC(=O)[C@@H]5CSCC(=O)N6CCN7CCN(CC6)C(=O)CSC[C@H](NC(=O)[C@H](Cc6c[nH]c8ccccc68)NC(=O)[C@H](CC(=O)O)NC(=O)[C@H](C)NC(=O)[C@H](CC(=O)O)NC(=O)[C@@H](NC(=O)[C@H](C)N)CSCC7=O)C(=O)N[C@@H](CC(=O)O)C(=O)N[C@@H](C(C)C)C(=O)N6CCC[C@H]6C(=O)N[C@@H](CO)C(=O)N[C@@H](CC(C)C)C(=O)N6CCC[C@H]6C(=O)N5)C(N)=O)nn4)nn3)C(N)=O)NC(=O)[C@@H]3CCCN3C1=O)C(=O)CSC[C@H](NC(=O)[C@H](C)N)C(=O)N[C@@H](CC(=O)O)C(=O)N[C@@H](C)C(=O)N[C@@H](CC(=O)O)C(=O)N[C@@H](Cc1c[nH]c3ccccc13)C(=O)N2 [BCY12257] (I: H-ACDADWCDVPSLPCAK-NH2 / II: H-ACDADWCDVPSLPCAK-NH2; linker I:2-I:7-I:14, II:2-II:7-II:14 via X1; linker I:16-II:16 via X2)
Kd (human P-Selectin protein): 11.6 nM
IC50 [1, 2]: > 78.4 nM
Inhibition at top concentration ([1]; geomean of n=3): 54%

CC(C)C[C@@H]1NC(=O)[C@H](CO)NC(=O)[C@@H]2CCCN2C(=O)[C@H](C(C)C)NC(=O)[C@H](CC(=O)O)NC(=O)[C@@H]2CSCC(=O)N3CCN(CCN(CC3)C(=O)CSC[C@@H](C(=O)N[C@@H](C)C(=O)N[C@@H](CCCCNC(=O)CCc3cn(CCOCCOCCOCCOCCOCCOCCOCCOCCOCCOCCOCCOCCOCCOCCOCCOCCOCCOCCOCCOCCOCCOCCOCCNC(=O)CCCC(=O)NCCOCCOCCOCCOCCOCCOCCOCCOCCOCCOCCOCCOCCOCCOCCOCCOCCOCCOCCOCCOCCOCCOCCOCCn4cc(CCC(=O)NCCCC[C@H](NC(=O)[C@H](C)NC(=O)[C@@H]5CSCC(=O)N6CCN7CCN(CC6)C(=O)CSC[C@H](NC(=O)[C@H](Cc6cccc8ccccc68)NC(=O)[C@H](CC(=O)O)NC(=O)[C@H](C)NC(=O)[C@H](CC(=O)O)NC(=O)[C@@H](NC(=O)[C@H](C)N)CSCC7=O)C(=O)N[C@@H](CC(=O)O)C(=O)N[C@@H](C(C)C)C(=O)N6CCC[C@H]6C(=O)N[C@@H](CO)C(=O)N[C@@H](CC(C)C)C(=O)N6CCC[C@H]6C(=O)N5)C(N)=O)nn4)nn3)C(N)=O)NC(=O)[C@@H]3CCCN3C1=O)C(=O)CSC[C@H](NC(=O)[C@H](C)N)C(=O)N[C@@H](CC(=O)O)C(=O)N[C@@H](C)C(=O)N[C@@H](CC(=O)O)C(=O)N[C@@H](Cc1cccc3ccccc13)C(=O)N2 [BCY12258] (I: H-ACDAD[1Nal]CDVPSLPCAK-NH2 / II: H-ACDAD[1Nal]CDVPSLPCAK-NH2; linker I:2-I:7-I:14, II:2-II:7-II:14 via X1; linker I:16-II:16 via X2)
Kd (human P-Selectin protein): 0.409 nM
IC50 [1, 2]: > 97.7 nM
Inhibition at top concentration ([1]; geomean of n=3): 57%

CC(C)C[C@@H]1NC(=O)[C@H](CO)NC(=O)[C@@H]2CCCN2C(=O)[C@H](C(C)C)NC(=O)[C@H](CC(=O)O)NC(=O)[C@@H]2CSCC(=O)N3CCN(CCN(CC3)C(=O)CSC[C@@H](C(=O)N[C@@H](C)C(=O)N[C@@H](CCCCNC(=O)CCc3cn(CCOCCOCCOCCOCCOCCOCCOCCOCCOCCOCCOCCOCCOCCOCCOCCOCCOCCOCCOCCOCCOCCOCCOCCNC(=O)CCOCC(COCCC(=O)NCCOCCOCCOCCOCCOCCOCCOCCOCCOCCOCCOCCOCCOCCOCCOCCOCCOCCOCCOCCOCCOCCOCCOCCn4cc(CCC(=O)NCCCC[C@H](NC(=O)[C@H](C)NC(=O)[C@@H]5CSCC(=O)N6CCN7CCN(CC6)C(=O)CSC[C@H](NC(=O)[C@H](Cc6c[nH]c8ccccc68)NC(=O)[C@H](CC(=O)O)NC(=O)[C@H](C)NC(=O)[C@H](CC(=O)O)NC(=O)[C@@H](NC(=O)[C@H](C)N)CSCC7=O)C(=O)N[C@@H](CC(=O)O)C(=O)N[C@@H](C(C)C)C(=O)N6CCC[C@H]6C(=O)N[C@@H](CO)C(=O)N[C@@H](CC(C)C)C(=O)N6CCC[C@H]6C(=O)N5)C(N)=O)nn4)(COCCC(=O)NCCOCCOCCOCCOCCOCCOCCOCCOCCOCCOCCOCCOCCOCCOCCOCCOCCOCCOCCOCCOCCOCCOCCOCCn4cc(CCC(=O)NCCCC[C@H](NC(=O)[C@H](C)NC(=O)[C@@H]5CSCC(=O)N6CCN7CCN(CC6)C(=O)CSC[C@H](NC(=O)[C@H](Cc6c[nH]c8ccccc68)NC(=O)[C@H](CC(=O)O)NC(=O)[C@H](C)NC(=O)[C@H](CC(=O)O)NC(=O)[C@@H](NC(=O)[C@H](C)N)CSCC7=O)C(=O)N[C@@H](CC(=O)O)C(=O)N[C@@H](C(C)C)C(=O)N6CCC[C@H]6C(=O)N[C@@H](CO)C(=O)N[C@@H](CC(C)C)C(=O)N6CCC[C@H]6C(=O)N5)C(N)=O)nn4)COCCC(=O)NCCOCCOCCOCCOCCOCCOCCOCCOCCOCCOCCOCCOCCOCCOCCOCCOCCOCCOCCOCCOCCOCCOCCOCCn4cc(CCC(=O)NCCCC[C@H](NC(=O)[C@H](C)NC(=O)[C@@H]5CSCC(=O)N6CCN7CCN(CC6)C(=O)CSC[C@H](NC(=O)[C@H](Cc6c[nH]c8ccccc68)NC(=O)[C@H](CC(=O)O)NC(=O)[C@H](C)NC(=O)[C@H](CC(=O)O)NC(=O)[C@@H](NC(=O)[C@H](C)N)CSCC7=O)C(=O)N[C@@H](CC(=O)O)C(=O)N[C@@H](C(C)C)C(=O)N6CCC[C@H]6C(=O)N[C@@H](CO)C(=O)N[C@@H](CC(C)C)C(=O)N6CCC[C@H]6C(=O)N5)C(N)=O)nn4)nn3)C(N)=O)NC(=O)[C@@H]3CCCN3C1=O)C(=O)CSC[C@H](NC(=O)[C@H](C)N)C(=O)N[C@@H](CC(=O)O)C(=O)N[C@@H](C)C(=O)N[C@@H](CC(=O)O)C(=O)N[C@@H](Cc1c[nH]c3ccccc13)C(=O)N2 [BCY12261]
Kd (human P-Selectin protein): 0.019 nM
IC50 [1]: 10.4 nM
Inhibition at top concentration ([1]; geomean of n=3): 68%

Source: patent publication US12150998B2, “Bicyclic peptide ligands specific for P-selectin” (BicycleTx Limited, priority 2021, dated 2024)
